The experiment deals with HERG potassium channel (Homo sapiens, UniProt Q12809). Kind of experiment: whole-cell patch clamp, HERG tail current in CHO cells. It is filed as cell-based. On the technique in general: In patch-clamp work, channel activity is measured electrically.
Sequence of HERG potassium channel (Q12809 whole entry): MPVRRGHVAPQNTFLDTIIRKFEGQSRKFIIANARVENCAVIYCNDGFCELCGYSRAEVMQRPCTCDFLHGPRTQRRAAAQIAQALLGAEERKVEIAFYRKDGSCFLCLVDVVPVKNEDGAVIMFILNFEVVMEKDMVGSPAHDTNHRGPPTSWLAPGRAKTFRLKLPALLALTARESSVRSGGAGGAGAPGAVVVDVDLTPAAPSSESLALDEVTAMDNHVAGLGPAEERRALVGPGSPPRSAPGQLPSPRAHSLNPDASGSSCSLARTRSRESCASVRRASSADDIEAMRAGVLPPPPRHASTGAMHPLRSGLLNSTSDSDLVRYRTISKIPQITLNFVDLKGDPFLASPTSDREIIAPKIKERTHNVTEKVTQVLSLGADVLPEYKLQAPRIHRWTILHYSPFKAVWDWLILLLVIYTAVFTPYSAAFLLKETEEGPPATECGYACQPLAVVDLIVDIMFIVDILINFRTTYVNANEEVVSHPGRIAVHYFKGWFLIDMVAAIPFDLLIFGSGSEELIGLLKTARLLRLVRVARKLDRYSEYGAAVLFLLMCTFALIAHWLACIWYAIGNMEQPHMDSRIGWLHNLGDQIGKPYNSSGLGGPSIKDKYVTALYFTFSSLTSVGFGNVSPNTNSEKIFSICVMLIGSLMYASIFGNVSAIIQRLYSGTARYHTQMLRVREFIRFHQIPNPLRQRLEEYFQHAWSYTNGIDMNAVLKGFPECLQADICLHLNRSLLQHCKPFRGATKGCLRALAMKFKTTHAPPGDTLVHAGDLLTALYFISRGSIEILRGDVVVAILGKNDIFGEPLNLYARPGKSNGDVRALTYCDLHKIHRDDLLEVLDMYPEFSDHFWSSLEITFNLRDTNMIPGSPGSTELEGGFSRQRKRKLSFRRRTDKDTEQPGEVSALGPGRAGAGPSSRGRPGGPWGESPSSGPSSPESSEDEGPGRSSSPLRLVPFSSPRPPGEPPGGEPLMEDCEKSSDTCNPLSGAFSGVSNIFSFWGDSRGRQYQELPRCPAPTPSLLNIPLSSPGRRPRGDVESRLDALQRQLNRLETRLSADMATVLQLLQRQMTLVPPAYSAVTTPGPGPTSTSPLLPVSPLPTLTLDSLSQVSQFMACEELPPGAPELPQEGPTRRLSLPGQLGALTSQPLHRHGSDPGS

`CCCCCCCC[N+](CCCCCCCC)(CCCCCCCC)CCCCCCCC` [TB, tetra-n-octylammonium bromide] gave an IC50 of 4 nM.

In general, IC50 refers to the point on the concentration scale where inhibition reaches its midpoint. A high value points to a need for much substance.

For the origin of these results see publication PMC4884629 (Toxicology and applied pharmacology, 2013).
